Assay results reported in patent US9676796B2, “Tricyclic benzoxaborole compound, preparation method and use thereof” (DONG-A ST CO., LTD., priority 2013, dated 2017).
Converted amounts (≈) assume the structure as drawn.

Tests used:
E. aerogenes = experiment: Antibacterial activity in vitro, agar plate dilution MIC; assay type: cell-based, Enterobacter aerogenes; details: Klebsiella aerogenes; clinical isolate, Mueller-Hinton agar dilution
Experimental: (§1) The antibacterial activity of the novel derivatives prepared by EXAMPLE 1 to 5 was evaluated in vitro by agar plate dilution method using Mueller-Hinton agar according to the NCCLS (National Committee for Clinical Laboratory Standards. 2000. Methods for dilution antimicrobial susceptibility tests for bacteria that grow aerobically. Approved standard, NCCLS document M7-A5, 5th ed, vol 20, no. 2. National Committee for Clinical Laboratory Standards, Wayne, Pa.). The test strains were clinical isolates from patients in general hospital in Korea from 2010 to 2013. The antibacterial activity was examined against important gram-negative bacteria including carbapenem-resistant Acinetobacter baumannii (A. baumannii), carbapenem-resistant Pseudomonas aeruginosa (P. aeruginosa), Escherichia coli (E. coli), and Klebsiella pneumonia (K. pneumonia) and was expressed as minimum inhibitory concentrations (MIC, μg/ml) in table 1.
(§2) The antibacterial activity of compounds (in Preparation Examples 1 to 4) and meropenem (MEPM, carbapenem-based antibiotics) were examined according to the same method shown as EXPERIMENTAL EXAMPLE 1.

P. vulgaris = experiment: as above; assay type: cell-based; details: Proteus vulgaris; clinical isolate, Mueller-Hinton agar dilution
Experimental: as §1, §2

[1] = tested on: Klebsiella pneumoniae (K. pneumoniae); experiment: as above; assay type: cell-based; details: clinical isolate, Mueller-Hinton agar dilution
Experimental: as §1, §2

[2] = tested on: carbapenem-resistant Acinetobacter baumannii (A. baumannii); experiment: as above; assay type: cell-based; details: carbapenem-resistant clinical isolate, Mueller-Hinton agar dilution
Experimental: as §1, §2

E. cloacae = experiment: as above; assay type: cell-based; details: Enterobacter cloacae; clinical isolate, Mueller-Hinton agar dilution
Experimental: as §1, §2

M. morganii = experiment: as above; assay type: cell-based; details: Morganella morganii; clinical isolate, Mueller-Hinton agar dilution
Experimental: as §1, §2

P. mirabilis = experiment: as above; assay type: cell-based; details: Proteus mirabilis; clinical isolate, Mueller-Hinton agar dilution
Experimental: as §1, §2

K. oxytoca = experiment: as above; assay type: cell-based; details: Klebsiella oxytoca; clinical isolate, Mueller-Hinton agar dilution
Experimental: as §1, §2

[3] = tested on: Escherichia coli (E. coli); experiment: as above; assay type: cell-based; details: clinical isolate, Mueller-Hinton agar dilution
Experimental: as §1, §2

[4] = tested on: carbapenem-resistant Pseudomonas aeruginosa (P. aeruginosa); experiment: as above; assay type: cell-based; details: carbapenem-resistant clinical isolate, Mueller-Hinton agar dilution
Experimental: as §1, §2

C. freundii = experiment: as above; assay type: cell-based; details: Citrobacter freundii; clinical isolate, Mueller-Hinton agar dilution
Experimental: as §1, §2

[5] = tested on: Carbapenem-resistant Acinetobacter baumannii BAA-1605; experiment: Antibacterial activity in animal infection model (mouse systemic infection); assay type: in vivo; details: for ED50: Acinetobacter baumannii, BAA1605, read-out: ED50 (dose needed for the 50 percentage survival rate); for ED50 times as low as ED50 value of Compound C: mouse systemic infection, A. baumannii BAA-1605, oral
Experimental: Antibacterial activity of the compounds from the present invention was examined in vivo according to the method described in S. Choi et al (Antimicrob. Agents Chemother 56 (9) 4713-4717. 2012).
Carbapenem-resistant Acinetobacter baumannii BAA-1605 was used as test strain and the test strain was intraperitoneally injected into mouse to cause the systemic infection. After 1 hour of infection, the compounds of EXAMPLEs 1, 2, 3, 5 and the control compounds were administrated orally to the mice.

S. marcescens = experiment: Antibacterial activity in vitro, agar plate dilution MIC; assay type: cell-based; details: Serratia marcescens; clinical isolate, Mueller-Hinton agar dilution
Experimental: as §1

N. gonorrhoeae = experiment: as above; assay type: cell-based; details: Neisseria gonorrhoeae; clinical isolate, Mueller-Hinton agar dilution

Structure (SMILES)	MIC (E. aerogenes) [µg/mL]	MIC (P. vulgaris) [µg/mL]	MIC [1] [µg/mL]	MIC [2] [µg/mL]	MIC (E. cloacae) [µg/mL]	MIC (M. morganii) [µg/mL]	MIC (P. mirabilis) [µg/mL]	MIC (K. oxytoca) [µg/mL]	MIC [3] [µg/mL]	MIC [4] [µg/mL]	MIC (C. freundii) [µg/mL]	ED50 [5] [mg/kg]	ED50 times as low as ED50 value of Compound C [5] [times]	MIC (S. marcescens) [µg/mL]	MIC (N. gonorrhoeae) [µg/mL]
CC1COB2O[C@H](CN)c3cccc(c32)O1.Cl (stereo partly drawn) [EXAMPLE 2, ((2S)-7-methyl-7,8-dihydro-2H-1,6,9-trioxa-9a-borabenzo[cd]azulen-2-yl)methanamine hydrochloride]	2	2	2	2	1	1	2	2	1	8	1	1.36	6.69	4	1
C[C@H]1COB2O[C@H](CN)c3cccc(c32)O1.Cl [EXAMPLE 5, ((2S, 7S)-7-methyl-7,8-dihydro-2H-1,6,9-trioxa-9a-borabenzo[cd]azulen-2-yl)methanamine hydrochloride]	4	2	2	4	1	0.5	2	2	1	8	1	1.36	6.69	4	2
C[C@@H]1COB2O[C@H](CN)c3cccc(c32)O1.Cl [EXAMPLE 3, ((2S,7R)-7-methyl-7,8-dihydro-2H-1,6,9-trioxa-9a-borabenzo[cd]azulen-2-yl)methanamine hydrochloride]	2	2	2	1	1	1	2	1	1	16	1	0.909	9.98	4	0.5
C[C@@H](O)[C@H]1C(=O)N2C(C(=O)O)=C(S[C@@H]3CN[C@H](C(=O)N(C)C)C3)[C@H](C)[C@H]12 [MEPM, meropenem, reference compound]	< 0.0313	0.0625 (≈ 0.163 µM)	< 0.0313	32 (≈ 83.4 µM)	< 0.0313	0.125 (≈ 0.326 µM)	0.0625 (≈ 0.163 µM)	< 0.0313	< 0.0313	32 (≈ 83.4 µM)	< 0.0313				
Cl.NCC1OB2OCCOc3cccc1c32 (centres unmarked) [Compound A, (7,8-dihydro-2H-1,6,9-trioxa-9a-borabenzo[cd]azulen-2-yl)methanamine, reference compound]	2	32	4	> 128	2	2	8	2	2	8	1	> 20			
C[C@@H]1COB2O[C@H](CN)c3cccc(c32)O1 [compound 4, ((2S,7R)-7-methyl-7,8-dihydro-2H-1,6,9-trioxa-9a-borabenzo[cd]azulen-2-yl) methanamine]	1 (≈ 4.57 µM)	1 (≈ 4.57 µM)	1 (≈ 4.57 µM)	1 (≈ 4.57 µM)	1 (≈ 4.57 µM)	0.5 (≈ 2.28 µM)	1 (≈ 4.57 µM)	1 (≈ 4.57 µM)	1 (≈ 4.57 µM)	8 (≈ 36.5 µM)	0.5 (≈ 2.28 µM)			2 (≈ 9.13 µM)	0.5 (≈ 2.28 µM)
Cl.NC[C@H]1OB2O[C@H](CO)COc3cccc1c32 [Compound C, ((2S,8R)-2-(aminomethyl)-7,8-dihydro-2H-1,6,9-trioxa-9a-borabenzo[cd]azulen-8-yl)methanol hydrochloride, reference compound]	4	8	2	4	2	2	8	2	2	8	2	9.07			
Cl.NCC1OB2OCC(CO)Oc3cccc1c32 (centres unmarked) [compound D, (2-(aminomethyl)-7,8-dihydro-2H-1,6,9-trioxa-9a-borabenzo[cd]azulen-7-yl)methanol hydrochloride, reference compound]	8	16	16	16	8	8	16	8	8	64	4				
CC1COc2cccc3c2B(O1)OC3CN.Cl (centres unmarked) [Compound B, (8-methyl-7,8-dihydro-2H-1,6,9-trioxa-9a-borabenzo[cd]azulen-2-yl)methanamine hydrochloride, reference compound]	2	16	4	8	2	4	8	2	2	64	1	> 20			
CC1COB2OC(CN)c3cccc(c32)O1.Cl (centres unmarked) [EXAMPLE 1, (7-methyl-7,8-dihydro-2H-1,6,9-trioxa-9a-borabenzo[cd]azulen-2-yl)methanamine hydrochloride]	4	4	2	4	2	2	2	2	2	32	1	1.75	5.18	4	2
